# Assay results published in patent US6649366B2, “Methods and compositions related to modulators of annexin and cartilage homeostasis” (SmithKline Beecham Corporation, priority 1999, dated 2003).
# Entries after “also recorded” stand apart in the source; their conditions may differ.
# Experiments:
# annexin I = biological target: T1, annexin I (Homo sapiens, UniProt P04083); conditions: liposomes; cited from earlier work
# T1 sequence (P04083 1-346): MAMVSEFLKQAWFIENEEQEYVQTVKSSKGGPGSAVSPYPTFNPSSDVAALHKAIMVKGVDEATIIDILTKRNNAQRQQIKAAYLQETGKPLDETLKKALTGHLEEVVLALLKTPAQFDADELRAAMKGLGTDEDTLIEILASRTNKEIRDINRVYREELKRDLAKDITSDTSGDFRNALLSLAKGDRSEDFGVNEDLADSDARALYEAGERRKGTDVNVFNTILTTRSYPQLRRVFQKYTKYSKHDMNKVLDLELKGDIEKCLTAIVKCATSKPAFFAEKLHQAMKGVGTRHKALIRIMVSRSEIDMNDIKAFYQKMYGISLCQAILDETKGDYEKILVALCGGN
# annexin V [1] = biological target: T2, annexin V (Homo sapiens, UniProt P08758); conditions: liposomes; cited from earlier work
# T2 sequence (P08758 1-320): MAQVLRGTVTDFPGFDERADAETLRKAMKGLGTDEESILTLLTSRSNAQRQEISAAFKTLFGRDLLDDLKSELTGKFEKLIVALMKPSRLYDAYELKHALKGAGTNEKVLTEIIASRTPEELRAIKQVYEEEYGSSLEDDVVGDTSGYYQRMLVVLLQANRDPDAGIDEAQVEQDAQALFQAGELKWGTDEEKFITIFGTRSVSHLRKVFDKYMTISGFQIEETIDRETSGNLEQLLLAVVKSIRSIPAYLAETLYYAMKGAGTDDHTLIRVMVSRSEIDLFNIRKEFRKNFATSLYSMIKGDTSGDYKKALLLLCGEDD
# annexin III = biological target: T3, annexin III (Homo sapiens, UniProt P12429); conditions: liposomes; cited from earlier work
# T3 sequence (P12429 1-323): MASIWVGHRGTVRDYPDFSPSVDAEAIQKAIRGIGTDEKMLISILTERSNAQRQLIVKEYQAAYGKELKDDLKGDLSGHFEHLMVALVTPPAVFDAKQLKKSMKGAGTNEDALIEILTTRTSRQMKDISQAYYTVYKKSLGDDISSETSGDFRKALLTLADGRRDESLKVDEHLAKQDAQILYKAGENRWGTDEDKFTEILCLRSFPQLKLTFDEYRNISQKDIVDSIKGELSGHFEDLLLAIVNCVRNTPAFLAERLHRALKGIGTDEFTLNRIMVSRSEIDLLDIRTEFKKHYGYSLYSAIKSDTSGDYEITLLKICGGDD
# OP-1 = test: endogenous OP-1 in IL-1β challenged cartilage explants (western blot); type: cell-based, human
# Description: Full thickness articular cartilage was dissected from load bearing regions of the femoral condyles of donors with no history of joint disease within 24 hours of death. Samples from men and women (age 50 to 76) were obtained from the Regional Organ Bank of Illinois as described above. After opening the joint, the surface of the cartilage was examined grossly. The appearance of each joint was given a grade based on the Collins scale (30) as modified by Muehleman et al (31).
# Tissue explants (3×3 mm) were prepared as described above and were cultured in Dulbecco's modified Eagle's medium/Hams' F12 (1/1) containing 10 ml/L of Insulin Transferrin Selenium A (ITS, Gibco), 25 μg/ml ascorbate, and 50 μg/ml gentamicin. Experimental cultures contained either recombinant human IL-1β (Genzyme), BDA compound in DMSO, or a combination of IL-1β and BDA. ITS containing medium was used to reduce or eliminate serum-contained growth factors that could mask the released OP-1 or OP-1 degradation products and create nonspecific binding of the antibodies. To reach a steady state, cartilage explants were cultured in the absence of IL-1β or BDA for 4 days (or 96 hours) followed by two days (or 48 hours) of culture with IL-1β, BDA or both IL-1β and BDA. DMSO was added to the media control groups to account for a possible effect of DMSO.
# Articular cartilage explants were briefly washed with 0.9% saline, homogenized and extracted in 1 M guanidine hydrochloride in the presence of proteinase inhibitors (0.1 M ε-aminocaproic acid, 0.05 M sodium acetate, 0.005 M EDTA, 0.005 M benzamidine chloride, 0.01 M N-ethylmaleimide, 0.0005 M phenymethanesulfonyl fluoride) at pH 7.4. Samples were extracted for 3 h in the refrigerator, and the extracts, together with the media, were dialyzed against water for 48 hours at 2-8° C., lyophilized and solubilized in sample buffer (0.01 M Tris HCl, pH 6.5, 1% sodium dodecyl sulfate (SDS), 10% glycerol, 0.016% bromphenol blue, 8 M urea, 0.2 M sodium chloride with (for the reduced conditions) or without (for non-reduced conditions) dithioerythritol added (DTT), pH 6.8). Cartilage extracts and media were analyzed by western blotting. All samples were normalized to the protein concentration. Protein concentrations was determined by a colorimetric assay, using BSA as a standard (Pierce, Rockford, Ill.).
# Aliquots of samples (30 μg of protein per lane) were analyzed by electrophoresis and immunoblotting. Samples were loaded onto a 12% SDS-polyacrylamide gel (PAGE) in a buffer containing 0.2 M glycine, 25 mM Tris and 3.5 mM SDS. Proteins were transferred from SDS-PAGE gels onto nitrocellulose transfer membranes overnight at 20 V, 4-8° C. in a buffer containing 12 mM Tris (pH 7.4), 6 mM Na acetate, and 0.3 mM EDTA at pH 7.4. Immunoblot analyses was done using OP-1 antibodies. […]
# embryonic avian tibias = test: LPS-induced cartilage degradation in tibia organ cultures; type: cell-based, Chick
# Description: The purpose of this study was to test the ability of calcium channel blocker BDA to inhibit cartilage degradation in embryonic avian tibias maintained in organ culture in the presence of lipopolysaccharide (LPS). Chick tibiotarsi were removed from 12 day embryos and their tarsal regions removed. These bones were maintained in organ culture as previously described (26-28). Four bones were placed in each well of a 24-well plate and cultured in 1 ml of DMEM supplemented with 50 μg/ml ascorbate and 10 μg/ml LPS (E. coli serotype 0111 :B4, catalog #L-3012, Sigma, St. Louis). The culture medium with fresh supplements was changed every other day. BDA was dissolved in DMSO at a stock concentration of 2 mM. BDA was added to the culture medium on all feeding days and tested at two concentrations, 0.5 and 2 μM. Control cultures received an equivalent concentration of DMSO. The loss of cartilage from the embryonic bones was measured as the release of proteoglycans and collagen (hydroxyproline) into the culture medium. The spent culture medium was collected with each medium change. The proteoglycan content of the culture medium was determined by a dimethyl methylene blue dye-binding assay (25). The hydroxyproline was measured by a colorimetric assay in 96 well plates (29).
# annexin V [2] = biological target: T2, annexin V; test: calcium ion flux assay in artificial vesicles containing annexin V (Calcium Green fluorescence); type: biochemical; conditions: 180 ug/ml Annexin V, 100 ug/ml CII Peptide where present, 2 hours
# Description: Artifical vesicles containing annexin were prepared according to methods known in the art. Specifically, vesicles were prepared by drying down lipids (Avanti Polar Lipids) with nitrogen overlay. Lipids were washed once in ether and further dried under vacuum overnight. Lipids were then sonicated on ice in NMDG Buffer (150 mM N Methyl D Glucamine, and 10 mM Hepes, adjusted to ph 7.4 with HCl, then diluted to 100 mOSM with water) containing 300μM Calcium Green dye (Molecular Probes). Extravesicular dye was removed by Biobead extraction for 20 minutes.
# Vesicles were diluted 1:100 in NMDG Buffer, mixed with Annexin V with or without collagen fragments (CII peptide), and incubated for 2 hours. Ca^++ fluxes were measured according to Kaneko et al.. Fluorescence was measured in a 96 well plate using the Flipr plate reader.
compound,measurement,setting,value
"CN1C(=O)CN=C(c2ccccc2)c2ccccc21 [BDA 250, 1,3-dihydro-1-methyl-5-phenyl-2H-1,4-benzodiazepine-2-one]",calcium fluxes induced by annexin I,annexin I,inhibited
same,calcium fluxes induced by annexin V,annexin V [1],no effect
same,calcium fluxes induced by annexin III,annexin III,inhibited
CN1C(=O)C(NC(=O)C(N)Cc2c[nH]c3ccccc23)C=C(c2ccccc2)c2ccccc21 (centres unmarked) [BDA],release of pro-OP-1 domain,OP-1; culture media,enhanced the release of pro-OP-1 domain
same,release of pro-OP-1 into culture media,OP-1; day 2 of culture,dramatic release of pro-OP-1
same,content of endogenous OP-1 in cartilage,"OP-1; human cartilage explants, IL-1 culture, 48 hours",increase in the content of endogenous OP-1; also recorded: increase in the content of endogenous anabolic factor
same,processing of endogenous OP-1 from pro- into mature form,OP-1; human cartilage under catabolic conditions,processing of cartilage endogenous OP-1 from pro- into mature form
same,LPS induced proteoglycan release to the culture medium,"embryonic avian tibias; 0.5 μM, compared to DMSO carrier control",intermediate loss; also recorded: intermediate amount
same,LPS induced collagen (hydroxyproline) release,"embryonic avian tibias; 0.5 μM, feeding day 15",intermediate degree of collagen release
same,LPS induced proteoglycan release to the culture medium,embryonic avian tibias; 2 μM,least release
same,LPS induced collagen (hydroxyproline) release,"embryonic avian tibias; 2 μM, feeding day 15",least collagen loss
same,LPS induced cartilage loss (release of hydroxyproline or proteoglycan),"embryonic avian tibias; 0.5 and 2 μM, dose dependence",dose-dependent inhibition
same,LPS induced collagen (hydroxyproline) release,"embryonic avian tibias; 0.5 and 2 μM, dose dependence",dose-dependent inhibition
same,LPS induced proteoglycan release to the culture medium,"embryonic avian tibias; 0.5 and 2 μM, dose dependence",dose-dependent inhibition
same,size of the bone and cartilage at the end of the experiments,embryonic avian tibias; LPS cultures,increased size of the bone and cartilage
Annexin V: calcium and phospholipid binding protein mixed with vesicles,Fluorescence (Calcium Signal),annexin V [2]; Lipid Ratio 65% PS/12.5% PC/12.5% PE/5% Chol,29023
same,Fluorescence (Calcium Signal),annexin V [2]; Lipid Ratio 70% PS/12.5% PC/12.5% PE,46454
